# Patent US12441689B2 (EpiVario, Inc., priority 2019, dated 2025)
# Target: human ACSS2 protein (Homo sapiens (Human), UniProt Q9NR19)
# Assay: ACSS2 Cell-Free Activity Assay (Cell-Free IC50)
# Conditions: 10 nM human ACSS2 protein, 90 minutes at 37 C, pyrophosphatase-coupled, Biomol Green absorbance at 620 nm; read-out: ACSS2 Biochemical IC50
# Text: ACSS2 Cell-Free Activity Assay (Cell-Free IC50)
# human ACSS2 protein, sequence (Q9NR19 whole entry): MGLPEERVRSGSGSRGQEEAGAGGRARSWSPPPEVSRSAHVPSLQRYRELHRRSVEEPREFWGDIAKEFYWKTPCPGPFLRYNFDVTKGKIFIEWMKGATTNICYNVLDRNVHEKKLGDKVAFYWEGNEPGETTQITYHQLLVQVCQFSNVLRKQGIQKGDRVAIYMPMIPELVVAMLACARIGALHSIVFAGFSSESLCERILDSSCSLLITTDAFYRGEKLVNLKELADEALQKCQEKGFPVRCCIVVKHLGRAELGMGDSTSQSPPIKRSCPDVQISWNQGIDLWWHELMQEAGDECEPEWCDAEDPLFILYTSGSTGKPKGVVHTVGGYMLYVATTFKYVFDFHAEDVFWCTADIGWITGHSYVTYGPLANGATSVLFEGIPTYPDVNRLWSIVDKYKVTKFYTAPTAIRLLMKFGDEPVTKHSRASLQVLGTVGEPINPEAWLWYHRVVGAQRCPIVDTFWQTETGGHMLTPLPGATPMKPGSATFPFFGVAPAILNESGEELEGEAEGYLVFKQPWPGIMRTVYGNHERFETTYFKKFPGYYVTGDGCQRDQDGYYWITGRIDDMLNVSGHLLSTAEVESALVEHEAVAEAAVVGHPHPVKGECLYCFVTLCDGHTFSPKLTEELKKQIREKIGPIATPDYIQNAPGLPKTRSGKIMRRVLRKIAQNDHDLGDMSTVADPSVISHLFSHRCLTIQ
row,IC50 [nM],SMILES
1,1 to 100,"CCC(F)(F)c1cccc(NC(=O)c2oc(-c3ccc(OC)cc3)nc2C)c1 [Compound 136, N-(3-(1,1-difluoropropyl)phenyl)-2-(4-methoxyphenyl)-4-methyloxazole-5-carboxamide]"
2,1 to 100,"CCC(F)(F)c1cccc(NC(=O)c2cc(C)nc(-c3ccc(OC(F)F)cc3)n2)c1 [Compound 137, 2-(4-(difluoromethoxy)phenyl)-N-(3-(1,1-difluoropropyl)phenyl)-6-methylpyrimidine-4-carboxamide]"
3,> 100,"CCC(F)(F)c1cccc(NC(=O)c2cnc(-c3ccc(OC(F)F)c(-c4ccccc4)c3)nc2C)c1 [Compound 138, 2-[4-(difluoromethoxy)-3-phenyl-phenyl]-N-[3-(1,1-difluoropropyl)phenyl]-4-methyl-pyrimidine-5-carboxamide]"
4,> 100,"Cc1nc(-c2ccc(OC(F)F)c(-c3ccccc3)c2)ncc1C(=O)Nc1cccc(C(C)(F)F)c1 [Compound 139, N-[3-(1,1-difluoroethyl)phenyl]-2-[4-(difluoromethoxy)-3-phenyl-phenyl]-4-methyl-pyrimidine-5-carboxamide]"
5,> 100,"Cc1nc(-c2ccc(OC(F)F)cc2)oc1C(=O)Nc1cccc(C(C)(F)F)c1 [Compound 141, N-(3-(1,1-difluoroethyl)phenyl)-2-(4-(difluoromethoxy)phenyl)-4-methyloxazole-5-carboxamide]"
6,> 100,"COc1ccc(-c2nc(C)c(C(=O)Nc3cccc(C(C)(F)F)c3)o2)cc1 [Compound 142, N-(3-(1,1-difluoroethyl)phenyl)-2-(4-methoxyphenyl)-4-methyloxazole-5-carboxamide]"
7,> 100,"CCC(F)(F)c1cccc(NC(=O)c2cnc(-c3ccc(OC(F)F)cc3)nc2C)c1 [Compound 143, 2-[4-(difluoromethoxy)phenyl]-N-[3-(1,1-difluoropropyl)phenyl]-4-methyl-pyrimidine-5-carboxamide]"
8,> 100,"Cc1nc(-c2ccc(OC(F)F)cc2)ncc1C(=O)Nc1cccc(C(C)(F)F)c1 [Compound 144, N-[3-(1,1-difluoroethyl)phenyl]-2-[4-(difluoromethoxy)phenyl]-4-methyl-pyrimidine-5-carboxamide]"
9,1 to 100,"Cc1nn(-c2ccc(OC(F)F)cc2)c(C2CC2)c1C(=O)Nc1cccc(C(C)(F)F)c1 [Compound 145, 5-cyclopropyl-N-[3-(1,1-difluoroethyl)phenyl]-1-[4-(difluoromethoxy)phenyl]-3-methyl-pyrazole-4-carboxamide]"
10,> 100,"Cc1nn(-c2ccc(OC(F)F)cc2)c(C(C)C)c1C(=O)Nc1cccc(C(C)(F)F)c1 [Compound 146, N-[3-(1,1-difluoroethyl)phenyl]-1-[4-(difluoromethoxy)phenyl]-5-isopropyl-3-methyl-pyrazole-4-carboxamide]"
11,1 to 100,"Cc1cc(C(=O)Nc2cccc(C(C)(F)F)c2)nc(-c2ccc(OC(F)F)cc2)n1 [Compound 147, N-(3-(1,1-difluoroethyl)phenyl)-2-(4-(difluoromethoxy)phenyl)-6-methylpyrimidine-4-carboxamide]"
12,> 100,"CCc1c(C(=O)Nc2cccc(C(C)(F)F)c2)c(C)nn1-c1ccc(OC(F)F)c(-c2ccccn2)c1 [Compound 148, N-[3-(1,1-difluoroethyl)phenyl]-1-[4-(difluoromethoxy)-3-(2-pyridyl)phenyl]-5-ethyl-3-methyl-pyrazole-4-carboxamide]"
13,> 100,"Cc1nn(-c2ccc(OC(F)F)c(-c3cocn3)c2)cc1C(=O)Nc1cccc(C(C)(F)F)c1 [Compound 149, N-(3-(1,1-difluoroethyl)phenyl)-1-(4-(difluoromethoxy)-3-(oxazol-4-yl)phenyl)-3-methyl-1H-pyrazole-4-carboxamide]"
14,> 100,"Cc1nn(-c2ccc(OC(F)F)cc2)c(CC(C)C)c1C(=O)Nc1cccc(C(C)(F)F)c1 [Compound 150, N-(3-(1,1-difluoroethyl)phenyl)-1-(4-(difluoromethoxy)phenyl)-5-isobutyl-3-methyl-1H-pyrazole-4-carboxamide]"
15,> 100,"CCc1c(C(=O)Nc2cccc(C(C)(F)F)c2)c(C)nn1-c1ccc(OC(F)F)c(-c2ccccc2)c1 [Compound 151, N-[3-(1,1-difluoroethyl)phenyl]-1-[4-(difluoromethoxy)-3-phenyl-phenyl]-5-ethyl-3-methyl-pyrazole-4-carboxamide]"
16,> 100,"CCc1c(C(=O)Nc2cccc(C(C)(F)F)c2)c(C)nn1-c1ccc(OC(F)F)c(-c2cccnc2)c1 [Compound 152, N-[3-(1,1-difluoroethyl)phenyl]-1-[4-(difluoromethoxy)-3-(3-pyridyl)phenyl]-5-ethyl-3-methyl-pyrazole-4-carboxamide]"
17,> 100,"COc1ccc(-c2nc(C(=O)Nc3cccc(C(C)(F)F)c3)c(C)o2)cc1 [Compound 153, N-[3-(1,1-difluoroethyl)phenyl]-2-(4-methoxyphenyl)-5-methyl-oxazole-4-carboxamide]"

row,IC50 [nM],SMILES
1,> 100,"Cc1nn(-c2ccc(OC(F)F)cc2)c(C2CCCC2)c1C(=O)Nc1cccc(C(C)(F)F)c1 [Compound 154, 5-cyclopentyl-N-[3-(1,1-difluoroethyl)phenyl]-1-[4-(difluoromethoxy)phenyl]-3-methyl-pyrazole-4-carboxamide]"
2,> 100,"CCc1nn(-c2ccc(OC(F)F)cc2)c(C)c1C(=O)Nc1cccc(C(C)(F)F)c1 [Compound 155, N-(3-(1,1-difluoroethyl)phenyl)-1-(4-(difluoromethoxy)phenyl)-3-ethyl-5-methyl-1H-pyrazole-4-carboxamide]"
3,> 100,"CCc1c(C(=O)Nc2cccc(C(C)(F)F)c2)c(C)nn1-c1ccc(OC(F)F)cc1 [Compound 156, N-(3-(1,1-difluoroethyl)phenyl)-1-(4-(difluoromethoxy)phenyl)-5-ethyl-3-methyl-1H-pyrazole-4-carboxamide]"
4,> 100,"CC1=NN(c2ccc(OC(F)F)cc2)C(=O)C1(C)C(=O)Nc1cc(C)cc(Cl)c1 (stereo not shown) [Compound 157, N-(3-chloro-5-methyl-phenyl)-1-[4-(difluoromethoxy)phenyl]-3,4-dimethyl-5-oxo-pyrazole-4-carboxamide]"
5,> 100,"CCCC1(C(=O)Nc2cccc(C(C)(F)F)c2)C(=O)N(c2ccc(OC(F)F)cc2)N=C1C (stereo not shown) [Compound 158, N-(3-(1,1-difluoroethyl)phenyl)-1-(4-(difluoromethoxy)phenyl)-3-methyl-5-oxo-4-propyl-4,5-dihydro-1H-pyrazole-4-carboxamide]"
6,1 to 100,"CCC1(C(=O)Nc2cccc(C(C)(F)F)c2)C(=O)N(c2ccc(OC(F)F)cc2)N=C1C (stereo not shown) [Compound 159, N-(3-(1,1-difluoroethyl)phenyl)-1-(4-(difluoromethoxy)phenyl)-4-ethyl-3-methyl-5-oxo-4,5-dihydro-1H-pyrazole-4-carboxamide]"
7,< 1,"CCCc1cc(N2N=C(C)C(C(=O)Nc3cccc(C(C)(F)F)c3)C2=O)cc(-c2ccccc2)c1OC (stereo not shown) [Compound 161, N-(3-(1,1-difluoroethyl)phenyl)-1-(6-methoxy-5-propyl-[1,1′-biphenyl]-3-yl)-3-methyl-5-oxo-4,5-dihydro-1H-pyrazole-4-carboxamide]"
8,1 to 100,"CNc1c(C(=O)Nc2cccc(C(C)(F)F)c2)c(C)nn1-c1ccc(OC(F)F)cc1 [Compound 162, N-(3-(1,1-difluoroethyl)phenyl)-1-(4-(difluoromethoxy)phenyl)-3-methyl-5-(methylamino)-1H-pyrazole-4-carboxamide]"
9,< 1,"CCC(F)(F)c1cccc(NC(=O)C2(Cl)C(=O)N(c3ccc(OC(F)F)cc3)N=C2C)c1 (stereo not shown) [Compound 163, 4-chloro-1-(4-(difluoromethoxy)phenyl)-N-(3-(1,1-difluoropropyl)phenyl)-3-methyl-5-oxo-4,5-dihydro-1H-pyrazole-4-carboxamide]"
10,> 100,"Cc1nn(-c2ccc(OC(F)F)cc2)nc1C(=O)Nc1cccc(C(C)(F)F)c1 [Compound 164, N-(3-(1,1-difluoroethyl)phenyl)-2-(4-(difluoromethoxy)phenyl)-5-methyl-2H-1,2,3-triazole-4-carboxamide]"
11,> 100,"CC1=NN(c2ccc(OC(F)F)cc2)C(=O)C1(C)C(=O)Nc1cc(Cl)c(F)c(Cl)c1 (stereo not shown) [Compound 165, N-(3,5-dichloro-4-fluoro-phenyl)-1-[4-(difluoromethoxy)phenyl]-3,4-dimethyl-5-oxo-pyrazole-4-carboxamide]"
12,> 100,"CC1=NN(c2ccc(OC(F)F)cc2)C(=O)C1(C)C(=O)Nc1cc(F)cc(Cl)c1 (stereo not shown) [Compound 166, N-(3-chloro-5-fluoro-phenyl)-1-[4-(difluoromethoxy)phenyl]-3,4-dimethyl-5-oxo-pyrazole-4-carboxamide]"
13,> 100,"CC1=NN(c2ccc(OC(F)F)cc2)C(=O)C1(C)C(=O)Nc1cccc(Cl)c1 (stereo not shown) [Compound 167, N-(3-chlorophenyl)-1-[4-(difluoromethoxy)phenyl]-3,4-dimethyl-5-oxo-pyrazole-4-carboxamide]"
14,1 to 100,"Cc1nn(-c2ccc(OC(F)F)cc2)c(N(C)C)c1C(=O)Nc1cccc(C(C)(F)F)c1 [Compound 168, N-(3-(1,1-difluoroethyl)phenyl)-1-(4-(difluoromethoxy)phenyl)-5-(dimethylamino)-3-methyl-1H-pyrazole-4-carboxamide]"
15,> 100,"CC1=NN(c2ccc(OC(F)F)cc2)C(=O)[C@@]1(C)C(=O)Nc1cccc(C(C)(F)F)c1 [Compound 169, (4R)—N-(3-(1,1-difluoroethyl)phenyl)-1-(4-(difluoromethoxy)phenyl)-3,4-dimethyl-5-oxo-4,5-dihydro-1H-pyrazole-4-carboxamide]"
16,> 100,"CC1=NN(c2ccc(OC(F)F)cc2)C(=O)[C@]1(C)C(=O)Nc1cccc(C(C)(F)F)c1 [Compound 170, (4S)—N-(3-(1,1-difluoroethyl)phenyl)-1-(4-(difluoromethoxy)phenyl)-3,4-dimethyl-5-oxo-4,5-dihydro-1H-pyrazole-4-carboxamide]"
17,> 100,"Cc1nn(-c2ccc(OC(F)F)cc2)c(N)c1C(=O)Nc1cccc(C(C)(F)F)c1 [Compound 171, 5-amino-N-(3-(1,1-difluoroethyl)phenyl)-1-(4-(difluoromethoxy)phenyl)-3-methyl-1H-pyrazole-4-carboxamide]"
